Experimental data from patent publication US20260259232A1, “A METHOD” (OWLSTONE MEDICAL LIMITED, priority 2022, published 2026).

Assay: Breath analysis by SIFT-MS before and after ingestion of 75 g glucose in healthy subjects
Type: in vivo, human
Details: for Cmax (maximum levels) in breath, interquartile range (IQR) / Cmax (maximum levels) in breath, median (M): breath sampled every 5 minutes for 90 minutes
[1] = 10 healthy subjects fasted overnight, after 75 grams of glucose in 300 ml of water

Experimental: A total of 10 healthy subjects were recruited and instructed to fast overnight and avoid drinking alcohol the day before the experiment. Breath was analysed using selected ion flow tube mass spectrometry (SIFT-MS). […] Afterwards, 75 grams of glucose dissolved in 300 ml of water were ingested, and 3 consecutive breath samples were provided every 5 minutes for 90 minutes. Measured compounds were expressed as part per billion volume/volume (PPB) and plotted as a function of time. Ambient samples were collected before and after the procedure.
The subjects were asked to fast overnight and not drink alcohol the day before the experiment.
A total of 75 g of glucose from Bulk (https://www.bulk.com/uk/dextrose.html?view=ppc&pid=2378&gclid=CjwKCAjw-vmkBhBMEiwAlrMeF2SOAMhqgNq65EV8YC2XWu63e4ByfJckgwv5jKZfzCA6BbIB24sLSBoC—kQAvD_BwE) was weighted in a glass and 300 ml of water was added and mixed until the full amount was dissolved. A total of 6 blank samples were collected and analysed before and after the procedure. The subjects provided breath samples before and every 5 minutes over 90 minutes after glucose ingestion. Each timepoint was represented by a 15 second breath exhalation consecutively repeated 3 times ed o and averaged for every timepoint. Breath samples were directly sampled for Selected-ion flow-tube mass spectrometry (SIFT-MS). Subjects exhaled into a single use Mouthpiece and Reservoir Tube (PO007257 Imspex) that were replaced for each timepoint collection.
Scans were performed in batch mode; data were collected in single ion mode (SIM). SIM scan was 50 secs long.

Row | Tmax (time to maximum level) in breath, interquartile range (IQR) [1] [min] | Tmax (time to maximum level) in breath, median (M) [1] [min] | Cmax (maximum levels) in breath, interquartile range (IQR) [1] | Cmax (maximum levels) in breath, median (M) [1] [PPB] | Time for breath levels to return to baseline (after glucose administration, all investigated subjects) [min] | Compound | Return of breath levels to baseline (in words) (after glucose administration, investigated timeframe 90 minutes)
1 | 10 to 15 | 10 | 4-8.8 PPB | 7 | ≤ 50 | CC(=O)C(C)O (centres unmarked) [acetoin] | –
2 | – | – | 303-593 PPB | 400 | – | CCO [ethanol] | returned to baseline at the end of the investigated timeframe for all but 1 subject
